Results reported in ChEMBL document CHEMBL1155243, “In vitro erythrocytic uptake studies of artemisinin and selected derivatives using LC-MS and 2D-QSAR analysis of uptake in parasitized erythrocytes” (Bioorg Med Chem, 2009).

Columns and labels:
Conditions in all cases: erythrocyte
[1] = Drug uptake in human type-A RBC at 3.55 uM after 2 hrs by LC-MS analysis; assay type: ADME, cell-based
[2] = Drug uptake in human type-A erythrocytes infected with Plasmodium falciparum D6 at 3.55 uM after 2 hrs by LC-MS analysis; assay type: ADME, cell-based
[3] = Toxicity in human type-A RBC assessed as hematocrit at 3.55 uM after 2 hrs; assay type: cell-based

| Compound | Drug uptake [1] | Drug uptake [2] | Activity [3] |
| --- | --- | --- | --- |
| C[C@@H]1CC[C@H]2[C@@H](CCCc3ccc(O)cc3)C(=O)O[C@@H]3O[C@]4(C)CC[C@@H]1[C@]32OO4.Cl | 39.01% | 63.09% | 33% |
| C[C@@H]1CC[C@H]2[C@@H](CCCc3cc(C(F)(F)F)cc(C(F)(F)F)c3)C(=O)O[C@@H]3O[C@]4(C)CC[C@@H]1[C@]32OO4 | 41.07% | 72.09% | 33% |
| C[C@@H]1CC[C@H]2[C@@H](CCCc3cc(F)cc(F)c3)CO[C@@H]3O[C@]4(C)CC[C@@H]1[C@]32OO4 | 40.01% | 70.91% | 33% |
| C[C@@H]1[C@@H](OC(=O)NC2CC2c2ccccc2)C[C@H]2[C@@H](C)C(=O)O[C@@H]3O[C@]4(C)CC[C@@H]1[C@]32OO4 (some centres undefined) | 32.31% | 51.63% | 33% |
| C[C@@H]1[C@@H](OC(=O)Nc2cccc3ccccc23)C[C@H]2[C@@H](C)C(=O)O[C@@H]3O[C@]4(C)CC[C@@H]1[C@]32OO4 | 32.63% | 51.68% | 33% |
| C[C@@H]1CC[C@H]2CC(=O)N(CCc3ccccc3)[C@@H]3O[C@]4(C)CC[C@@H]1[C@@]23OO4 | 38.43% | 61.8% | 33% |
| C[C@@H]1CC[C@H]2[C@@H](CCCc3ccc(S(C)(=O)=O)cc3)C(=O)O[C@@H]3O[C@]4(C)CC[C@@H]1[C@]32OO4 | 38.53% | 61.9% | 33% |
| C[C@@H]1CC[C@H]2[C@@H](CN3C(=O)CSC3=O)C(=O)O[C@@H]3O[C@]4(C)CC[C@@H]1[C@]32OO4 | 33.94% | 57.69% | 33% |
| C[C@@H]1CC[C@H]2[C@@H](CCCc3ccc(N(C)C)cc3)C(=O)O[C@@H]3O[C@]4(C)CC[C@@H]1[C@]32OO4.Cl | 32.82% | 51.92% | 33% |
| C[C@@H]1[C@@H](O)C[C@H]2[C@@H](C)C(=O)O[C@@H]3O[C@]4(C)CC[C@@H]1[C@]32OO4 | 33.1% | 53.9% | 33% |
| C[C@@H]1CC[C@H]2CC(=O)O[C@@H]3O[C@]4(CCc5ccccc5)CC[C@@H]1[C@@]23OO4 | 38.96% | 62.34% | 33% |
| C[C@@H]1CC[C@H]2CC(=O)O[C@@H]3O[C@]4(CC(=O)O)CC[C@@H]1[C@@]23OO4 | 34.03% | 54.51% | 33% |
| C[C@H]1C(=O)O[C@@H]2O[C@@]3(C)CC[C@@H]4[C@@]2(OO3)[C@H]1CC[C@]4(C)O | 32.99% | 53.89% | 33% |
| CCCCCCCCCCCCCC[C@H]1C(=O)O[C@@H]2O[C@]3(C)CC[C@H]4[C@H](C)CC[C@@H]1[C@@]24O3 | 45.09% | 73% | 33% |
| CC(C)CN1C(=O)C[C@@H]2CC[C@@H](C)[C@@H]3CC[C@]4(C)OO[C@@]23[C@H]1O4 | 35.17% | 61.51% | 33% |
| C[C@@H]1CC[C@H]2[C@@H](CC(=O)O)C(=O)O[C@@H]3O[C@]4(C)CC[C@@H]1[C@]32OO4 | 33.92% | 54.23% | 33% |
| C[C@@H]1CC[C@H]2[C@@H](CCCc3cc(C(F)(F)F)cc(C(F)(F)F)c3)CO[C@@H]3O[C@]4(C)CC[C@@H]1[C@]32OO4 | 42.11% | 72% | 33% |
| C[C@@H]1CC[C@H]2[C@@H](CN3C(=O)CCC3=O)C(=O)O[C@@H]3O[C@]4(C)CC[C@@H]1[C@]32OO4 | 36.57% | 66.06% | 33% |
| CCCC[C@H]1C(=O)O[C@@H]2O[C@]3(CC)CC[C@H]4[C@H](C)CC[C@@H]1[C@@]24OO3 | 39.11% | 62.5% | 33% |
| C[C@@H]1CC[C@H]2[C@@H](CCCc3cc(C(F)(F)F)cc(C(F)(F)F)c3)[C@H](O)O[C@@H]3O[C@]4(C)CC[C@@H]1[C@]32OO4 | 40.43% | 71.76% | 33% |
| C[C@@H]1CC[C@H]2[C@@H](CCCc3cccc(Cl)c3)[C@H](O)O[C@@H]3O[C@]4(C)CC[C@@H]1[C@]32OO4 | 40.13% | 71.21% | 33% |
| C[C@@H]1[C@@H](OC(=O)Nc2ccccc2)C[C@H]2[C@@H](C)C(=O)O[C@@H]3O[C@]4(C)CC[C@@H]1[C@]32OO4 | 32.18% | 51.04% | 33% |
| C[C@@H]1CC[C@H]2[C@@H](C)C(=O)O[C@@H]3O[C@@]4(C)CC[C@@H]1[C@]32OO4 [ARTEMISININ] | 34.68% | 61.07% | 33% |
